The source of these data is PubChem BioAssay (NCI).

Some test systems named below: NCI-H460 lung; CAKI-1 renal; COLO 205 colon; SW-620 colon; NCI/ADR-RES ovarian; SK-MEL-5 melanoma; MOLT-4 leukemia; UO-31 renal; IGROV1 ovarian; U251 CNS; OVCAR-5 ovarian; KM20L2 colon.
Common to all, as to experiment: inhibition of tumour cell growth, NCI panel, 48 h

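How tested: cells in 96-well plates exposed to compound for 48 hours at five concentrations. GI50 marks 50% less growth. TGI: total growth inhibition.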 Bounds are passed on as bounds.

Regarding `CN(C)S(=O)(=O)c1cccc(-c2nc3sc4c(c3c(=O)[nH]2)CCCC4)c1`, the GI50 with NCI-H460 lung was 0.931 µM; in the experiment on CAKI-1 renal, greater than 100 µM; in the experiment on COLO 205 colon, greater than 100 µM; in the experiment with SW-620 colon, 1.78 µM; with NCI/ADR-RES ovarian, 2.83 µM; in the experiment with SK-MEL-5 melanoma, greater than 100 µM. Also, the GI50 with MOLT-4 leukemia was greater than 100 µM. Moreover, the TGI with NCI-H460 lung, with CAKI-1 renal, in the experiment on COLO 205 colon, in the experiment on SW-620 colon, with NCI/ADR-RES ovarian and in the experiment with SK-MEL-5 melanoma was greater than 100 µM throughout. This compound also showed a TGI in the experiment on MOLT-4 leukemia greater than 100 µM.
In the case of `O=C(/C=C/c1ccsc1)c1ccc(Cl)s1`, the TGI in the experiment with NCI-H460 lung, in the experiment with CAKI-1 renal, in the experiment on UO-31 renal, with IGROV1 ovarian, in the experiment on U251 CNS and in the experiment on COLO 205 colon was greater than 100 µM in each case. The TGI with SW-620 colon was 55.5 µM; with NCI/ADR-RES ovarian, greater than 100 µM; in the experiment with SK-MEL-5 melanoma, greater than 100 µM; with MOLT-4 leukemia, 52 µM.
For `CC(=O)O[C@H]1CC[C@H]2[C@@H]3CC[C@H]4Nc5c(cnn5S(C)(=O)=O)C[C@]4(C)[C@H]3CC[C@]12C`, the TGI in the experiment on NCI-H460 lung, in the experiment with CAKI-1 renal, with UO-31 renal, in the experiment on IGROV1 ovarian, in the experiment with U251 CNS and in the experiment with COLO 205 colon was greater than 100 µM in each case. For the same compound, the TGI in the experiment with NCI/ADR-RES ovarian, in the experiment on SK-MEL-5 melanoma, in the experiment with OVCAR-5 ovarian and in the experiment on MOLT-4 leukemia was greater than 100 µM each time.
As to `COc1cc(C2c3cc4c(cc3[C@@H](Nc3ccc(N5CCOCC5)cc3)C3COC(=O)[C@H]23)OCO4)cc(OC)c1O` (stereo partly drawn), the TGI with NCI-H460 lung stood at 1.14 µM; in the experiment on CAKI-1 renal it was 2.63 µM; with UO-31 renal, 5.16 µM; in the experiment with IGROV1 ovarian it was 26 µM; in the experiment with U251 CNS, 1.89 µM; with COLO 205 colon, 4.94 µM. Further, the TGI in the experiment on SW-620 colon is 10.1 µM; with NCI/ADR-RES ovarian, 26.2 µM; in the experiment with SK-MEL-5 melanoma it was 2.45 µM; in the experiment on KM20L2 colon it was 3.91 µM; in the experiment with OVCAR-5 ovarian it was 22.1 µM; with MOLT-4 leukemia it was 0.19 µM.
As to `CC1=NN(C(=O)c2ccccc2)C(=O)C1N=Nc1ccccc1C(=O)O` (stereo not drawn), the TGI with NCI-H460 lung is greater than 100 µM; with CAKI-1 renal it was greater than 100 µM; with UO-31 renal, 21.8 µM; in the experiment on IGROV1 ovarian, greater than 78.1 µM; with U251 CNS, greater than 100 µM; in the experiment with COLO 205 colon it was greater than 100 µM. Moreover, the TGI in the experiment with SW-620 colon, in the experiment on NCI/ADR-RES ovarian, with SK-MEL-5 melanoma, with KM20L2 colon, in the experiment on OVCAR-5 ovarian and in the experiment on MOLT-4 leukemia was greater than 100 µM throughout.
For `Cn1nc2ccc3nccc(NCCNCCCl)c3c2n1`, the TGI in the experiment with NCI-H460 lung, with UO-31 renal, with IGROV1 ovarian, in the experiment with COLO 205 colon, with SW-620 colon and with KM20L2 colon was greater than 100 µM throughout. For the same compound, the TGI with OVCAR-5 ovarian and in the experiment with MOLT-4 leukemia was greater than 100 µM throughout.
As to `CCOC(=O)CCc1c(C)c2c(O)cc(O)cc2oc1=O`, the TGI with NCI-H460 lung, in the experiment with CAKI-1 renal, in the experiment on UO-31 renal, with IGROV1 ovarian, with U251 CNS and in the experiment with COLO 205 colon was greater than 100 µM in each case. In addition, the TGI with SW-620 colon, in the experiment on NCI/ADR-RES ovarian, with SK-MEL-5 melanoma, with KM20L2 colon, in the experiment on OVCAR-5 ovarian and in the experiment with MOLT-4 leukemia was greater than 100 µM in each case.
On to `COC(=O)C[C@](O)(CCC(C)(C)O)C(=O)O[C@@H]1C(OC)=C[C@]23CCCN2CCc2cc4c(cc2[C@H]13)OCO4`, for which the TGI was 0.0793 µM in the experiment with NCI-H460 lung; 1.64 µM in the experiment on CAKI-1 renal; 7.01 µM in the experiment with UO-31 renal; 0.506 µM with IGROV1 ovarian; 0.379 µM with U251 CNS; 0.255 µM in the experiment with COLO 205 colon. Moreover, the TGI was 59.8 µM in the experiment on NCI/ADR-RES ovarian; 0.202 µM with SK-MEL-5 melanoma; 0.74 µM in the experiment with KM20L2 colon; 1.08 µM with OVCAR-5 ovarian; greater than 100 µM in the experiment on MOLT-4 leukemia.
On to `CCOC(=O)C1CCn2c(nc3c(=O)n(C)c(=O)n(C)c32)S1` (stereo not drawn), for which the TGI in the experiment on NCI-H460 lung, in the experiment with CAKI-1 renal, with IGROV1 ovarian, in the experiment with U251 CNS, with SW-620 colon and with SK-MEL-5 melanoma was greater than 100 µM in each case. Besides, the TGI in the experiment on KM20L2 colon, in the experiment on OVCAR-5 ovarian and with MOLT-4 leukemia was greater than 100 µM throughout.
